Experimental data: PubChem BioAssay AID2060610 (Molecular Pharmacology Branch, DTP, NCI, 2025)

Test system: 616215-338-R-J1-PDC complex spheroids, viability % test/control
Assay: Anticancer human tumor 616215-338-R-J1-PDC patient-derived colon adenocarcinoma cell line growth inhibition [CLK]
Settings: for IC50: curve of first compound; for viability, T/C: stronger effect = lower value
How it was run: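 Patient-derived tumor cells grown as complex spheroids with HUVEC endothelial cells and mesenchymal stem cells, treated with drug combinations. Concentrations descend in half-log steps from near clinical Cmax, or from 10 microM if Cmax unknown.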
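Also: spheroids exposed to agents for 7 days.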
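For viability, T/C in this document: 100% = DMSO vehicle wells.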

For Cn1ncnc1[C@H]1c2n[nH]c(=O)c3cc(F)cc(c23)N[C@@H]1c1ccc(F)cc1 + CN1CCN(c2cc(C(=O)Nc3cc4cc(-c5cnn(C)c5)ccc4cn3)ccn2)CC1, the IC50 (second compound 0.0316 µM) was > 100 nM, the IC50 (second compound 0.1 µM) was > 100 nM and the IC50 (second compound 0.316 µM) was < 0.316 nM. For the same compound, the IC50 (second compound 1 µM) was < 0.316 nM, the IC50 (second compound 3.16 µM) was < 0.316 nM and the IC50 (second compound 10 µM) was < 0.316 nM. The viability, T/C (second compound 0.0316 µM, first compound 0.000316 µM) was 113%, the viability, T/C (second compound 0.0316 µM, first compound 0.001 µM) was 96.3% and the viability, T/C (second compound 0.0316 µM, first compound 0.00316 µM) was 99.7%. The viability, T/C (second compound 0.0316 µM, first compound 0.01 µM) was 122%, the viability, T/C (second compound 0.0316 µM, first compound 0.0316 µM) was 98.3% and the viability, T/C (second compound 0.0316 µM, first compound 0.1 µM) was 112%. It also gave a viability, T/C (second compound 0.1 µM, first compound 0.000316 µM) of 119%, a viability, T/C (second compound 0.1 µM, first compound 0.001 µM) of 106% and a viability, T/C (second compound 0.1 µM, first compound 0.00316 µM) of 102%. The viability, T/C (second compound 0.1 µM, first compound 0.01 µM) was 105%, the viability, T/C (second compound 0.1 µM, first compound 0.0316 µM) was 101% and the viability, T/C (second compound 0.1 µM, first compound 0.1 µM) was 69.5%. For the same compound, the viability, T/C (second compound 0.316 µM, first compound 0.000316 µM) was 29.3%, the viability, T/C (second compound 0.316 µM, first compound 0.001 µM) was 35.2% and the viability, T/C (second compound 0.316 µM, first compound 0.00316 µM) was 39.2%. For the same compound, the viability, T/C (second compound 0.316 µM, first compound 0.01 µM) was 38.7%, the viability, T/C (second compound 0.316 µM, first compound 0.0316 µM) was 36.5% and the viability, T/C (second compound 0.316 µM, first compound 0.1 µM) was 32%. For the same compound, the viability, T/C (second compound 1 µM, first compound 0.000316 µM) was 0.12%, the viability, T/C (second compound 1 µM, first compound 0.001 µM) was 0.14% and the viability, T/C (second compound 1 µM, first compound 0.00316 µM) was 1.57%. The viability, T/C (second compound 1 µM, first compound 0.01 µM) was 0.1%, the viability, T/C (second compound 1 µM, first compound 0.0316 µM) was 1.12% and the viability, T/C (second compound 1 µM, first compound 0.1 µM) was 4.26%. It also gave a viability, T/C (second compound 3.16 µM, first compound 0.000316 µM) of 0.1%, a viability, T/C (second compound 3.16 µM, first compound 0.001 µM) of 0.14% and a viability, T/C (second compound 3.16 µM, first compound 0.00316 µM) of 2.13%. It also gave a viability, T/C (second compound 3.16 µM, first compound 0.01 µM) of 0.09%, a viability, T/C (second compound 3.16 µM, first compound 0.0316 µM) of 0.08% and a viability, T/C (second compound 3.16 µM, first compound 0.1 µM) of 1.74%. It also gave a viability, T/C (second compound 10 µM, first compound 0.000316 µM) of 0.12%, a viability, T/C (second compound 10 µM, first compound 0.001 µM) of 0.17% and a viability, T/C (second compound 10 µM, first compound 0.00316 µM) of 0.13%. It also gave a viability, T/C (second compound 10 µM, first compound 0.01 µM) of 0.13%, a viability, T/C (second compound 10 µM, first compound 0.0316 µM) of 1.65% and a viability, T/C (second compound 10 µM, first compound 0.1 µM) of 0.15%.
